Source: US20090318527A1, “INDOLE COMPOUNDS AND METHODS OF USE THEREOF” (priority 2008, published 2009)
Structures can show the parent of a compound that is named as a salt.

Experiments:
human 5-HT2A receptor = biological target: T1, human 5-HT2A receptor (Homo sapiens, UniProt P28223); assay: Intracellular calcium flux assay, HEK 293 cells stably expressing 5-HT2A; type: cell-based; conditions: for 5-HT2A efficacy as percentage of the maximal 5-HT response ± SD / EC50: calcium flux, at least three independent experiments; for 5-HT2A response as percentage of the maximal 5-HT response @ 10,000: EC50 not reached; for EC50: each in triplicate, read-out: 5-HT2A mean EC50 ± SD; for Emax at 10 µM: HEK293, read-out: 5-HT2A functional activity (N/A class);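 for all read-outs here: fluorescent calcium dye read on FLIPR Tetra, peak signal above baseline within 60 s after compound addition, seven concentrations spanning 10 pM to 10 µM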
T1 construct: expressed in transfected cells; host or cells: HEK 293
T1 sequence (P28223 whole entry): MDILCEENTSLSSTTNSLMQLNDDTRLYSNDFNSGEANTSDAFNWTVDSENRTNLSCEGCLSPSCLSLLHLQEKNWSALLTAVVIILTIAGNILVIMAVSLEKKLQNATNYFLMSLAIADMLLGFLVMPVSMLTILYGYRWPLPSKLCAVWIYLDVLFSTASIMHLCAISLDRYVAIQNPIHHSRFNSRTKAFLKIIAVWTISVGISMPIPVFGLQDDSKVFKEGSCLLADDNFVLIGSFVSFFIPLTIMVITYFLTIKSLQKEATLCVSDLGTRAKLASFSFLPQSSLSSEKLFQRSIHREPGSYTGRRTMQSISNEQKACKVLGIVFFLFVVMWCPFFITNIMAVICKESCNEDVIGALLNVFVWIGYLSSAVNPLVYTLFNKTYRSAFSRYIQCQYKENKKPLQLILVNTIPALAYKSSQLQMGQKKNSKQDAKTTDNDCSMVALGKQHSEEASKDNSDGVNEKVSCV

human 5-HT2B receptor = biological target: T2, human 5-HT2B receptor (Homo sapiens, UniProt P41595); assay: Intracellular calcium flux assay, HEK 293 cells stably expressing 5-HT2B; type: cell-based; conditions: for Emax at 10 µM: HEK293, read-out: 5-HT2B functional activity (N/A class); for EC50 / Emax: calcium flux, at least three independent experiments; for EC50: each in triplicate, read-out: 5-HT2B mean EC50 ± SD; for Emax: HEK293, read-out: 5-HT2B efficacy as percentage of the maximal 5-HT response ± SD;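 for all read-outs here: calcium dye fluorescence read on a FLIPR Tetra, peak signal above baseline within 60 s after compound addition, seven-point concentration series from 10 pM up to 10 µM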
T2 construct: expressed in transfected cells; host or cells: HEK 293
T2 sequence (P41595 whole entry): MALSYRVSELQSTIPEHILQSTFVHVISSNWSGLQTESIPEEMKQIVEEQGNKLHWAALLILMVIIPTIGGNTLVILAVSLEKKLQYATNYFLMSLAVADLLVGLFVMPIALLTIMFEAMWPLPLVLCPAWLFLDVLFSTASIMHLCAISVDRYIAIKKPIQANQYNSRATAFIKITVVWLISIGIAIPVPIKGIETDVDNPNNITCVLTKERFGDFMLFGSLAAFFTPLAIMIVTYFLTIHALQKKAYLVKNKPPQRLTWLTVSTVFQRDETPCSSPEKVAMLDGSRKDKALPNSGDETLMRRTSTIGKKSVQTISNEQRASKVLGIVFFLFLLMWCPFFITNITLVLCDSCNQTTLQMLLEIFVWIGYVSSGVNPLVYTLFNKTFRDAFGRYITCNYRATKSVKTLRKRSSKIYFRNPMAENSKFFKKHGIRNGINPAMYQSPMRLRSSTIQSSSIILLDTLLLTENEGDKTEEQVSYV

5-HT2C = biological target: T3, 5-HT2C (Homo sapiens, UniProt P28335); assay: Intracellular calcium flux assay, HEK 293 cells stably expressing 5-HT2C; type: cell-based; parameters: expressed in transfected cells; host or cells: HEK 293; conditions: for Emax: HEK293, read-out: 5-HT2C efficacy as percentage of the maximal 5-HT response ± SD, at least three independent experiments, entries marked a (42, 50, 51, 52) single measurements; for EC50: read-out: 5-HT2C mean EC50 ± SD;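 for all read-outs here: calcium dye fluorescence read on FLIPR Tetra as peak signal above baseline within 60 s of compound addition, seven concentrations from 10 pM to 10 µM, each in triplicate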
T3 sequence (P28335 33-458): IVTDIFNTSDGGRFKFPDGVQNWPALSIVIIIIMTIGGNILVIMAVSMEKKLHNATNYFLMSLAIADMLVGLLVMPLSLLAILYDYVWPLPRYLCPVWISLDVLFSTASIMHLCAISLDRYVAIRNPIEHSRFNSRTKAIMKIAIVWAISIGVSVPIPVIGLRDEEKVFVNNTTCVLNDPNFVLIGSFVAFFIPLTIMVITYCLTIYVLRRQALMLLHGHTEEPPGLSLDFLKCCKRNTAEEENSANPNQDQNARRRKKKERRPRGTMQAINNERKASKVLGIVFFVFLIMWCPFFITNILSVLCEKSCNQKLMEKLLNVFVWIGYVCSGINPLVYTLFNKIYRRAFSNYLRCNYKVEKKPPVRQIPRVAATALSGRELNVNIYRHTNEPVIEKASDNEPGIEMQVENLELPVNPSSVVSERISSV

[1] = at least three independent experiments, entries marked a (42, 50, 51, 52) single measurements

Compound | melting point [°C] | 5-HT2A efficacy as percentage of the maximal 5-HT response ± SD (human 5-HT2A receptor) | Emax at 10 µM (human 5-HT2B receptor; at 10,000 nM) [%] | 5-HT2A response as percentage of the maximal 5-HT response @ 10,000 (human 5-HT2A receptor; at 10,000 nM) | EC50 (human 5-HT2A receptor) [nM] | Emax (5-HT2C) [%] | EC50 (5-HT2C; [1]) [nM] | 5-HT2B response as percentage of the maximal 5-HT response @ 10,000 (human 5-HT2B receptor; at 10,000 nM, EC50 not reached) | EC50 (human 5-HT2B receptor) [nM] | Emax (human 5-HT2B receptor) [%] | Emax at 10 µM (human 5-HT2A receptor; at 10,000 nM) [%] | 5-HT2B functional activity (N/A class) (human 5-HT2B receptor; at 10,000 nM) | 5-HT2A functional activity (N/A class) (human 5-HT2A receptor; at 10,000 nM) | 5-HT2C efficacy as percentage of the maximal 5-HT response ± SD (5-HT2C; [1])
CCCOc1c(F)ccc2c1c(CCN(C)C)cn2CCC.Cl | 142 to 145 | – | – | – | – | – | – | – | – | – | – | – | – | –
NCCc1c[nH]c2ccc(O)cc12 [Compound 5-HT, 5-hydroxytryptamine, reference compound] | – | (100%) | – | – | – | – | – | – | – | – | – | – | – | –
CCn1cc(CCN(C)C)c2c(OC)ccc(F)c21 [Compound 23, 2-(1-Ethyl-7-fluoro-4-methoxy-1H-indol-3-yl)-N,N-dimethylethanamine] | – | – | < 10 | (17 ± 3.7 @ 10,000) % | > 10000 | 71 | 13 ± 1.74 | – | – | – | – | – | – | –
CCOc1ccc(F)c2c1c(CCN(C)C)cn2CC [Compound 24, 2-(4-Ethoxy-1-ethyl-7-fluoro-1H-indol-3-yl)-N,N-dimethylethanamine] | 59 to 60 | – | – | (21 ± 5.5 @ 10,000) % | > 2000 | 77 | 57 ± 17.1 | (14 ± 4.8 @ 10,000) % | > 5000 | – | – | – | – | –
CCCOc1ccc(F)c2c1c(CCN(C)C)cn2CC [Compound 25, 2-(1-Ethyl-7-fluoro-4-propoxy-1H-indol-3-yl)-N,N-dimethylethanamine] | 49 to 50 | – | – | – | – | 75 | 168 ± 27.2 | – | 1450 | 31 | < 10 | – | – | –
CCOc1ccc(F)c2c1c(CCN(C)C)cn2C [Compound 26, 2-(4-Ethoxy-7-fluoro-1-methyl-1H-indol-3-yl)-N,N-dimethylethanamine] | – | (25 ± 4.1%) | – | – | 1490 | 82 | 43 ± 18.8 | – | 217 ± 95.9 | 28 | – | – | – | –
CCCOc1ccc(F)c2c1c(CCN(C)C)cn2C [Compound 27, 2-(7-Fluoro-1-methyl-4-propoxy-1H-indol-3-yl)-N,N-dimethylethanamine] | – | – | – | – | – | 75 | 96 ± 19.8 | – | 334 ± 88.7 | 54 | < 10 | – | – | –
CCCn1cc(CCN(C)C)c2c(OC)ccc(F)c21 [Compound 28, 2-(7-Fluoro-4-methoxy-1-propyl-1H-indol-3-yl)-N,N-dimethylethanamine] | – | – | < 10 | – | – | 45 | 76 ± 39.1 | – | – | – | < 10 | – | – | –
CCCn1cc(CCN(C)C)c2c(OCC)ccc(F)c21 [Compound 29, 2-(4-Ethoxy-7-fluoro-1-propyl-1H-indol-3-yl)-N,N-dimethylethanamine] | – | – | < 10 | – | – | 43 | 346 ± 97 | – | – | – | < 10 | – | – | –
CCCOc1ccc(F)c2c1c(CCN(C)C)cn2CCC [Compound 30, 2-(7-Fluoro-4-propoxy-1-propyl-1H-indol-3-yl)-N,N-dimethylethanamine] | – | – | < 10 | – | – | 37 | 858 ± 289 | – | – | – | < 10 | – | – | –
COc1cc(F)cc2c1c(CCN(C)C)cn2C.Cl [Compound 31, 2-(6-Fluoro-4-methoxy-1-methyl-1H-indol-3-yl)-N,N-dimethylethanamine hydrochloride] | 260.6 to 261.3 | – | – | (21 ± 7.9 @ 10,000) % | > 10000 | 87 | 9.9 ± 3.27 | – | 55 ± 7.77 | 51 | – | – | – | –
CCOc1cc(F)cc2c1c(CCN(C)C)cn2C.Cl [Compound 32, 2-(4-Ethoxy-6-fluoro-1-methyl-1H-indol-3-yl)-N,N-dimethylethanamine hydrochloride] | 202.2 to 203.3 | – | – | (26 ± 7.6 @ 10,000) % | > 10000 | 85 | 31 ± 23.6 | – | 166 ± 113 | 66 | – | – | – | –
CCCOc1cc(F)cc2c1c(CCN(C)C)cn2C.Cl [Compound 33, 2-(6-Fluoro-1-methyl-4-propoxy-1H-indol-3-yl)-N,N-dimethylethanamine hydrochloride] | 195.4 to 196.8 | – | – | – | – | 91 | 384 ± 193 | – | 182 ± 102 | 78 | < 10 | – | – | –
CCn1cc(CCN(C)C)c2c(OC)cc(F)cc21.Cl [Compound 34, 2-(1-Ethyl-6-fluoro-4-methoxy-1H-indol-3-yl)-N,N-dimethylethanamine hydrochloride] | 233.4 to 234.9 | – | – | – | – | 82 | 24 ± 8.38 | – | 397 ± 133 | 21 | < 10 | – | – | –
CCOc1cc(F)cc2c1c(CCN(C)C)cn2CC [Compound 35, 2-(4-Ethoxy-1-ethyl-6-fluoro-1H-indol-3-yl)-N,N-dimethylethanamine] | 77.1 to 78.2 | – | – | (14 ± 4.8 @ 10,000) % | > 10000 | 88 | 246 ± 185 | – | 777 ± 383 | 47 | – | – | – | –
CCCOc1cc(F)cc2c1c(CCN(C)C)cn2CC [Compound 36, 2-(1-Ethyl-6-fluoro-4-propoxy-1H-indol-3-yl)-N,N-dimethylethanamine] | 68.9 to 70.1 | – | – | – | – | 87 | 659 ± 352 | – | 543 ± 325 | – | < 10 | – | – | –
CCCn1cc(CCN(C)C)c2c(OC)cc(F)cc21.Cl [Compound 37, 2-(6-Fluoro-4-methoxy-1-propyl-1H-indol-3-yl)-N,N-dimethylethanamine hydrochloride] | 119.8 to 121.3 | – | < 10 | – | – | 69 | 354 ± 195 | – | – | – | < 10 | – | – | –
CCCn1cc(CCN(C)C)c2c(OCC)cc(F)cc21.Cl [Compound 38, 2-(4-Ethoxy-6-fluoro-1-propyl-1H-indol-3-yl)-N,N-dimethylethanamine hydrochloride] | 154 to 156 | – | < 10 | – | – | 80 | 1250 | – | – | – | < 10 | – | – | –
CCCOc1cc(F)cc2c1c(CCN(C)C)cn2CCC.Cl [Compound 39, 2-(6-Fluoro-4-propoxy-1-propyl-1H-indol-3-yl)-N,N-dimethylethanamine hydrochloride] | 170.3 to 171.4 | – | – | – | – | 65 | 762 ± 469 | – | 3120 | 26 | < 10 | – | – | –
CCn1cc(CCN(C)C)c2c(OC)c(F)ccc21.Cl [Compound 41, 2-(1-Ethyl-5-fluoro-4-methoxy-1H-indol-3-yl)-N,N-dimethylethanamine hydrochloride] | 149 to 150 | – | < 10 | – | – | 37 | 1.4 ± 0.19 | – | – | – | < 10 | – | – | –
CCOc1c(F)ccc2c1c(CCN(C)C)cn2C [Compound 59, 2-(4-Ethoxy-5-fluoro-1-methyl-1H-indol-3-yl)-N,N-dimethylethanamine hydrochloride] | – | – | < 10 | – | – | 51 | 0.82 ± 0.23 | – | – | – | < 10 | – | – | –
CCn1cc(CCN(C)C)c2cc(F)c(O)cc21 [Compound 83, 3-[2-(Dimethylamino-ethyl)]-1-ethyl-5-fluoro-1H-indol-6-ol] | – | – | – | – | – | – | 221 ± 27 | – | – | – | – | N/A (N/A: <10% max HT @ 10,000 nM) | N/A (N/A: <10% max HT @ 10,000 nM) | (73 ± 4%)
